Reference: ChEMBL document CHEMBL1124634, “Synthesis and antirhinovirus activity of 6-(dimethylamino)-2-(trifluoromethyl)-9-(substituted benzyl)-9H-purines” (J Med Chem, 1989)

How the values were obtained:
Human rhinovirus sp. [1] = experiment: Antiviral activity against rhinoviral-19 serotype in a plaque inhibition assay using monolayers of M-HeLa cells; assay type: functional, organism-based
Human rhinovirus sp. [2] = experiment: Antiviral activity against rhinoviral-1B serotype in a plaque inhibition assay using monolayers of M-HeLa cells; assay type: functional, organism-based
Human rhinovirus sp. [3] = experiment: Percent inhibitory activity at 8 uM against rhinoviral 21 serotype in a plaque inhibition assay using monolayers of M-HeLa cells; assay type: functional
[4] = Antiviral activity against rhinoviral 13 serotype in a plaque inhibition assay using monolayers of M-HeLa cells; assay type: functional, cell-based; conditions: Homo sapiens
Human rhinovirus sp. [5] = experiment: (§1) Antiviral activity against rhinoviral 9 serotype in a plaque inhibition assay using monolayers of M-HeLa cells; assay type: functional, organism-based
Human rhinovirus sp. [6] = experiment: Antiviral activity against rhinoviral 29 serotype in a plaque inhibition assay using monolayers of M-HeLa cells; assay type: functional, organism-based
Human rhinovirus sp. [7] = experiment: Antiviral activity against rhinoviral-18 serotype in a plaque inhibition assay using monolayers of M-HeLa cells; assay type: functional, organism-based
Human rhinovirus sp. [8] = experiment: Antiviral activity against rhinoviral 15 serotype in a plaque inhibition assay using monolayers of M-HeLa cells; assay type: functional, organism-based
Human rhinovirus sp. [9] = experiment: Antiviral activity against rhinoviral 31 serotype in a plaque inhibition assay using monolayers of M-HeLa cells; assay type: functional, organism-based
Human rhinovirus sp. [10] = experiment: Antiviral activity against rhinoviral 30 serotype in a plaque inhibition assay using monolayers of M-HeLa cells; assay type: functional, organism-based
Human rhinovirus sp. [11] = experiment: Antiviral activity against rhinoviral-1A serotype in a plaque inhibition assay using monolayers of M-HeLa cells; assay type: functional, organism-based
Human rhinovirus sp. [12] = experiment: Antiviral activity against rhinoviral 2 serotype in a plaque inhibition assay using monolayers of M-HeLa cells; assay type: functional, organism-based
[13] = Percent inhibitory activity at 2.5 uM against rhinoviral 3 serotype in a plaque inhibition assay using monolayers of M-HeLa cells; assay type: functional, Homo sapiens
Human rhinovirus sp. [14] = experiment: Antiviral activity against rhinoviral 14 serotype in a plaque inhibition assay using monolayers of M-HeLa cells; assay type: functional, organism-based
Human rhinovirus sp. [15] = experiment: Antiviral activity against rhinoviral 12 serotype in a plaque inhibition assay using monolayers of M-HeLa cells; assay type: functional, organism-based
[16] = Percent inhibitory activity at 2.5 uM against rhinoviral 4 serotype in a plaque inhibition assay using monolayers of M-HeLa cells; assay type: functional, Homo sapiens
[17] = Percent inhibitory activity at 5 uM against rhinoviral 16 serotype in a plaque inhibition assay using monolayers of M-HeLa cells; assay type: functional, Homo sapiens
Human rhinovirus sp. [18] = experiment: Percent inhibitory activity at 8 uM against rhinoviral 5 serotype in a plaque inhibition assay using monolayers of M-HeLa cells; assay type: functional
[19] = Percent inhibitory activity at 2.5 uM against rhinoviral 8 serotype in a plaque inhibition assay using monolayers of M-HeLa cells; assay type: functional, Homo sapiens
Human rhinovirus sp. [20] = experiment: Percent inhibitory activity at 8 uM against rhinoviral 3 serotype in a plaque inhibition assay using monolayers of M-HeLa cells; assay type: functional
Human rhinovirus sp. [21] = experiment: Antiviral activity against rhinoviral 4 serotype in a plaque inhibition assay using monolayers of M-HeLa cells; assay type: functional, organism-based
[22] = Percent inhibitory activity at 8 uM against rhinoviral 18 serotype in a plaque inhibition assay using monolayers of M-HeLa cells; assay type: functional, Homo sapiens
Human rhinovirus sp. [23] = experiment: Antiviral activity against rhinoviral 16 serotype in a plaque inhibition assay using monolayers of M-HeLa cells; assay type: functional, organism-based
Human rhinovirus sp. [24] = experiment: Percent inhibitory activity at 8 uM against rhinoviral 30 serotype in a plaque inhibition assay using monolayers of M-HeLa cells; assay type: functional
Human rhinovirus sp. [25] = experiment: Percent inhibitory activity at 8 uM against rhinoviral 13 serotype in a plaque inhibition assay using monolayers of M-HeLa cells; assay type: functional
Human rhinovirus sp. [26] = experiment: Percent inhibitory activity at 8 uM against rhinoviral 29 serotype in a plaque inhibition assay using monolayers of M-HeLa cells; assay type: functional
Human rhinovirus sp. [27] = experiment: Antiviral activity against rhinoviral 5 serotype in a plaque inhibition assay using monolayers of M-HeLa cells; assay type: functional, organism-based
Human rhinovirus sp. [28] = experiment: Antiviral activity against rhinoviral 8 serotype in a plaque inhibition assay using monolayers of M-HeLa cells; assay type: functional, organism-based
Human rhinovirus sp. [29] = experiment: Percent inhibitory activity at 8 uM against rhinoviral 15 serotype in a plaque inhibition assay using monolayers of M-HeLa cells; assay type: functional
[30] = Percent inhibitory activity at 8 uM against rhinoviral 2 serotype in a plaque inhibition assay using monolayers of M-HeLa cells; assay type: functional, Homo sapiens
Human rhinovirus sp. [31] = experiment: Antiviral activity against rhinoviral 3 serotype in a plaque inhibition assay using monolayers of M-HeLa cells; assay type: functional, organism-based
[32] = Percent inhibitory activity at 8 uM against rhinoviral 8 serotype in a plaque inhibition assay using monolayers of M-HeLa cells; assay type: functional, Homo sapiens
Human rhinovirus sp. [33] = experiment: Antiviral activity against rhinoviral 21 serotype in a plaque inhibition assay using monolayers of M-HeLa cells; assay type: functional, organism-based
[34] = as §1; assay type: functional, cell-based; conditions: Homo sapiens
[35] = Percent inhibitory activity at 8 uM against rhinoviral-18 serotype in a plaque inhibition assay using monolayers of M-HeLa cells; assay type: functional, Homo sapiens
Human rhinovirus sp. [36] = experiment: Percent inhibitory activity at 8 uM against rhinoviral 14 serotype in a plaque inhibition assay using monolayers of M-HeLa cells; assay type: functional
Human rhinovirus sp. [37] = experiment: Percent inhibitory activity at 8 uM against rhinoviral 31 serotype in a plaque inhibition assay using monolayers of M-HeLa cells; assay type: functional
Human rhinovirus sp. [38] = experiment: Percent inhibitory activity at 8 uM against rhinoviral 19s erotype in a plaque inhibition assay using monolayers of M-HeLa cells; assay type: functional
Human rhinovirus sp. [39] = experiment: Percent inhibitory activity at 8 uM against rhinoviral 4 serotype in a plaque inhibition assay using monolayers of M-HeLa cells; assay type: functional
Human rhinovirus sp. [40] = experiment: Antiviral activity against rhinoviral 19 serotype in a plaque inhibition assay using monolayers of M-HeLa cells; assay type: functional, organism-based
Human rhinovirus sp. [41] = experiment: Antiviral activity against rhinoviral 18 serotype in a plaque inhibition assay using monolayers of M-HeLa cells; assay type: functional, organism-based

## Cc1ccc(Cn2cnc3c(N(C)C)nc(C(F)(F)F)nc32)cc1
Human rhinovirus sp. [1]
  IC50: 6.7 µM
Human rhinovirus sp. [2]
  IC50: 0.03 µM
Human rhinovirus sp. [3]
  Inhibition: 40%
[4]
  IC50: 2.6 µM
Human rhinovirus sp. [5]
  IC50: 0.35 µM
Human rhinovirus sp. [6]
  IC50: 4.2 µM
Human rhinovirus sp. [7]
  IC50: 1.8 µM
Human rhinovirus sp. [8]
  IC50: 1 µM
Human rhinovirus sp. [9]
  IC50: 1.2 µM
Human rhinovirus sp. [10]
  IC50: 2.2 µM
Human rhinovirus sp. [11]
  IC50: 0.1 µM
Human rhinovirus sp. [12]
  IC50: 5.7 µM
[13]
  Inhibition: 43 µM
Human rhinovirus sp. [14]
  IC50: 1.2 µM
Human rhinovirus sp. [15]
  IC50: 2.6 µM
[16]
  Inhibition: 41 µM
[17]
  Inhibition: 12%
Human rhinovirus sp. [18]
  Inhibition: 18%
[19]
  Inhibition: 41 µM

## COc1ccc(Cn2cnc3c(N(C)C)nc(C(F)(F)F)nc32)cc1C
Human rhinovirus sp. [1]
  IC50: 8.6 µM
Human rhinovirus sp. [20]
  Inhibition: 28%
Human rhinovirus sp. [21]
  IC50: 5.5 µM
Human rhinovirus sp. [2]
  IC50: 0.2 µM
Human rhinovirus sp. [3]
  Inhibition: 16%
Human rhinovirus sp. [5]
  IC50: 1.3 µM
[22]
  Inhibition: 35 µM
Human rhinovirus sp. [8]
  IC50: 9 µM
Human rhinovirus sp. [23]
  IC50: 1.9 µM
Human rhinovirus sp. [11]
  IC50: 2.6 µM
Human rhinovirus sp. [12]
  IC50: 8 µM
Human rhinovirus sp. [24]
  Inhibition: 20%
Human rhinovirus sp. [25]
  Inhibition: 12%
Human rhinovirus sp. [26]
  Inhibition: 27%
Human rhinovirus sp. [27]
  IC50: > 8 µM
Human rhinovirus sp. [28]
  IC50: > 8 µM
Human rhinovirus sp. [14]
  IC50: 7.5 µM
Human rhinovirus sp. [15]
  IC50: 4.1 µM

## CN(C)c1nc(C(F)(F)F)nc2c1ncn2Cc1ccc(S(C)(=O)=O)cc1
Human rhinovirus sp. [1]
  IC50: 9 µM
Human rhinovirus sp. [29]
  Inhibition: 47%
Human rhinovirus sp. [21]
  IC50: 8.8 µM
Human rhinovirus sp. [2]
  IC50: 0.5 µM
[4]
  IC50: 4.2 µM
Human rhinovirus sp. [6]
  IC50: 3 µM
[30]
  Inhibition: 36%
Human rhinovirus sp. [31]
  IC50: 4.7 µM
Human rhinovirus sp. [9]
  IC50: 4.3 µM
[32]
  Inhibition: 36%
Human rhinovirus sp. [33]
  IC50: 9 µM
Human rhinovirus sp. [23]
  IC50: 2.3 µM
Human rhinovirus sp. [11]
  IC50: 2.3 µM
Human rhinovirus sp. [24]
  Inhibition: 32%
Human rhinovirus sp. [15]
  IC50: 6 µM
[34]
  IC50: 3.7 µM
[35]
  Inhibition: 29%
Human rhinovirus sp. [36]
  Inhibition: 16%
Human rhinovirus sp. [18]
  Inhibition: 40%

## CN(C)c1nc(C(F)(F)F)nc2c1ncn2Cc1cccc(F)c1
Human rhinovirus sp. [20]
  Inhibition: 35%
Human rhinovirus sp. [2]
  IC50: 0.03 µM
Human rhinovirus sp. [5]
  IC50: 0.3 µM
Human rhinovirus sp. [6]
  IC50: 2.7 µM
Human rhinovirus sp. [7]
  IC50: 8 µM
Human rhinovirus sp. [8]
  IC50: 3.2 µM
Human rhinovirus sp. [37]
  Inhibition: 43%
[32]
  Inhibition: 45%
Human rhinovirus sp. [33]
  IC50: 10 µM
Human rhinovirus sp. [23]
  IC50: 0.8 µM
Human rhinovirus sp. [11]
  IC50: 0.57 µM
Human rhinovirus sp. [12]
  IC50: 15 µM
Human rhinovirus sp. [24]
  Inhibition: 28%
Human rhinovirus sp. [38]
  Inhibition: 28%
Human rhinovirus sp. [25]
  Inhibition: 30%
Human rhinovirus sp. [14]
  IC50: 7.1 µM
Human rhinovirus sp. [15]
  IC50: 2.3 µM
Human rhinovirus sp. [39]
  Inhibition: 34%
Human rhinovirus sp. [18]
  Inhibition: 34%

## CN(C)c1nc(C(F)(F)F)nc2c1ncn2Cc1ccc(Cl)cc1
Human rhinovirus sp. [21]
  IC50: 6.1 µM
Human rhinovirus sp. [2]
  IC50: 0.03 µM
[4]
  IC50: > 8 µM
Human rhinovirus sp. [5]
  IC50: 0.9 µM
Human rhinovirus sp. [6]
  IC50: 2.5 µM
Human rhinovirus sp. [31]
  IC50: 6.9 µM
Human rhinovirus sp. [8]
  IC50: 3.3 µM
Human rhinovirus sp. [9]
  IC50: 5.3 µM
Human rhinovirus sp. [40]
  IC50: 6.5 µM
Human rhinovirus sp. [10]
  IC50: 6.5 µM
Human rhinovirus sp. [33]
  IC50: 7.4 µM
Human rhinovirus sp. [11]
  IC50: 0.73 µM
Human rhinovirus sp. [12]
  IC50: 6.6 µM
Human rhinovirus sp. [27]
  IC50: 8 µM
Human rhinovirus sp. [28]
  IC50: 5.7 µM
Human rhinovirus sp. [14]
  IC50: 4.3 µM
Human rhinovirus sp. [15]
  IC50: 7.4 µM
Human rhinovirus sp. [41]
  IC50: > 8 µM

## CN(C)c1ccc(Cn2cnc3c(N(C)C)nc(C(F)(F)F)nc32)cc1
Human rhinovirus sp. [29]
  Inhibition: 30%
Human rhinovirus sp. [21]
  IC50: 6.1 µM
Human rhinovirus sp. [2]
  IC50: 0.29 µM
Human rhinovirus sp. [3]
  Inhibition: 27%
Human rhinovirus sp. [5]
  IC50: 4.6 µM
Human rhinovirus sp. [6]
  IC50: 4.7 µM
Human rhinovirus sp. [37]
  Inhibition: 41%
[32]
  Inhibition: 37%
Human rhinovirus sp. [23]
  IC50: 1.9 µM
Human rhinovirus sp. [11]
  IC50: 1.2 µM
Human rhinovirus sp. [12]
  IC50: 11 µM
Human rhinovirus sp. [24]
  Inhibition: 35%
Human rhinovirus sp. [38]
  Inhibition: 23%
Human rhinovirus sp. [25]
  Inhibition: 45%
Human rhinovirus sp. [15]
  IC50: 4 µM
Human rhinovirus sp. [36]
  Inhibition: 46%
Human rhinovirus sp. [41]
  IC50: 8.9 µM
Human rhinovirus sp. [18]
  Inhibition: 39%
